# From publication PMC10817512, “OSMAC-Based Discovery and Biosynthetic Gene Clusters Analysis of Secondary Metabolites from Marine-Derived Streptomyces globisporus SCSIO LCY30” (Marine Drugs, 2023)
# Read-outs that look alike come from different tables or passages of the source.
# Assays:
# [1] = tested on: Staphylococcus simulans AKA1; assay: Antibacterial MIC, CLSI microdilution; type: cell-based
# [2] = tested on: Bacillus subtilis BS01; assay: Antibacterial MIC, CLSI microdilution; type: cell-based
# Description: (§1) An antibacterial activity test of compounds 1–3 was conducted according to a standard protocol provided by the Clinical and Laboratory Standards Institute (CLSI). Sixteen bacterial strains were used, including Staphylococcus aureus ATCC 29213, Staphylococcus aureus 16339, Staphylococcus aureus 1862, Staphylococcus aureus 3090, Staphylococcus aureus 991, Staphylococcus aureus 669, Staphylococcus aureus 745324, Staphylococcus aureus 16162, Staphylococcus aureus (cfr) GDE4P037P, Enterococcus faecalis ATCC 29212, Enterococcus faecalis 36950, Micrococcus luteus ML01, MRSA, Bacillus subtilis BS01, Enterococcus gallinarum 5F52C, and Enterococcus faecium 36711. Compounds 1–3 were dissolved in DMSO at a concentration of 3.2 mg/mL, and vancomycin and ampicilin were used as antibacterial control agents. […] All the assays were carried out in triplicate.
# [3] = tested on: Enterococcus faecalis 36950; assay: Antibacterial MIC, CLSI microdilution; type: cell-based
# Description: as §1
# [4] = tested on: Enterococcus faecalis ATCC 29212; assay: Antibacterial MIC, CLSI microdilution; type: cell-based; conditions: ATCC29212
# Description: as §1
# [5] = tested on: Enterococcus faecium 36711; assay: Antibacterial MIC, CLSI microdilution; type: cell-based
# Description: as §1
# [6] = tested on: Enterococcus gallinarum 5F52C; assay: Antibacterial MIC, CLSI microdilution; type: cell-based
# Description: as §1
# [7] = tested on: Micrococcus luteus ML01; assay: Antibacterial MIC, CLSI microdilution; type: cell-based; conditions: Micrococcus luteus
# Description: as §1
# [8] = tested on: Staphylococcus aureus (cfr) GDE4P037P; assay: Antibacterial MIC, CLSI microdilution; type: cell-based
# Description: as §1
# [9] = tested on: Staphylococcus aureus 16162; assay: Antibacterial MIC, CLSI microdilution; type: cell-based
# Description: as §1
# [10] = tested on: Staphylococcus aureus 16339; assay: Antibacterial MIC, CLSI microdilution; type: cell-based
# Description: as §1
# [11] = tested on: Staphylococcus aureus 1862; assay: Antibacterial MIC, CLSI microdilution; type: cell-based
# Description: as §1
# [12] = tested on: Staphylococcus aureus 3090; assay: Antibacterial MIC, CLSI microdilution; type: cell-based
# Description: as §1
# [13] = tested on: Staphylococcus aureus 669; assay: Antibacterial MIC, CLSI microdilution; type: cell-based
# Description: as §1
# [14] = tested on: Staphylococcus aureus 745324; assay: Antibacterial MIC, CLSI microdilution; type: cell-based
# Description: as §1
# [15] = tested on: Staphylococcus aureus 991; assay: Antibacterial MIC, CLSI microdilution; type: cell-based
# Description: as §1
# [16] = tested on: Staphylococcus aureus ATCC 29213; assay: Antibacterial MIC, CLSI microdilution; type: cell-based; conditions: ATCC29213
# Description: as §1
# [17] = tested on: MRSA; assay: Antibacterial MIC, CLSI microdilution; type: cell-based, Staphylococcus aureus; conditions: Staphylococcus aureus
# Description: as §1
# [18] = tested on: cervical cancer cell line Hela; assay: Cell growth inhibitory (cytotoxic) activity assay; type: cell-based, human
# Description: (§2) The cell growth inhibitory activities of compounds 1–3 against fourteen different human cell lines (human liver cell line LX-2; hepatocellular cancer line HEPG2; human intestinal epithelial cell line NCM460; colorectal cancer cell lines HCT116 and SW480; normal human breast cell line MCF-10A; breast cancer cell line MCF7; triple-negative breast cancer cell lines MDA-MB-231, MDA-MB-468, and Bt-549; human umbilical vein endothelial cell line; lung cancer cell line A549; cervical cancer cell line Hela; and cholangiocarcinoma cell line RBE) were tested according to the previously published methods. SPSS software version 22.0 was used to test the IC50 values. Cisplatin and adriamycin were used as positive control agents, and all the experiments were carried out in triplicate.
# [19] = tested on: cholangiocarcinoma cell line RBE; assay: Cell growth inhibitory (cytotoxic) activity assay; type: cell-based, human
# Description: as §2
# [20] = tested on: colorectal cancer cell line HCT116; assay: Cell growth inhibitory (cytotoxic) activity assay; type: cell-based, human
# Description: as §2
# [21] = tested on: colorectal cancer cell line SW480; assay: Cell growth inhibitory (cytotoxic) activity assay; type: cell-based, human; conditions: SW480 (colorectal cancer)
# Description: as §2
# [22] = tested on: hepatocellular cancer line HEPG2; assay: Cell growth inhibitory (cytotoxic) activity assay; type: cell-based, human
# Description: as §2
# [23] = tested on: triple-negative breast cancer cell line Bt-549; assay: Cell growth inhibitory (cytotoxic) activity assay; type: cell-based, human; conditions: Bt-549 (TNBC)
# Description: as §2
# [24] = tested on: triple-negative breast cancer cell line MDA-MB-231; assay: Cell growth inhibitory (cytotoxic) activity assay; type: cell-based, human; conditions: MDA-MB-231 (TNBC)
# Description: as §2
# [25] = tested on: triple-negative breast cancer cell line MDA-MB-468; assay: Cell growth inhibitory (cytotoxic) activity assay; type: cell-based, human; conditions: MDA-MB-468 (TNBC)
# Description: as §2
# [26] = tested on: breast cancer cell line MCF7; assay: Cell growth inhibitory (cytotoxic) activity assay; type: cell-based, human
# Description: SPSS software version 22.0 was used to test the IC50 values.
# [27] = tested on: human intestinal epithelial cell line NCM460; assay: Cell growth inhibitory (cytotoxic) activity assay; type: cell-based; conditions: NCM460 (normal intestinal epithelial cell line)
# Description: as §2
# [28] = tested on: human liver cell line LX-2; assay: Cell growth inhibitory (cytotoxic) activity assay; type: cell-based; conditions: LX-2 (human liver cell line)
# Description: as §2
# [29] = tested on: human umbilical vein endothelial cell line HUVEC; assay: Cell growth inhibitory (cytotoxic) activity assay; type: cell-based
# Description: as §2
# [30] = tested on: normal human breast cell line MCF-10A; assay: Cell growth inhibitory (cytotoxic) activity assay; type: cell-based; conditions: MCF-10A (normal human breast cell line)
# Description: as §2
compound,measurement,setting,value
"CC1(C)S[C@@H]2[C@H](NC(=O)[C@H](N)c3ccccc3)C(=O)N2[C@H]1C(=O)O [Ampicillin, reference compound]",MIC,"[1]; Staphylococcus simulans AKA1, 37 °C, 16–18 h, read-out: MIC",> 64 µg/mL
same,MIC,"[2]; Bacillus subtilis BS01, 37 °C, 16–18 h, read-out: MIC",0.13 µg/mL
same,MIC,"[3]; Enterococcus faecalis 36950, 37 °C, 16–18 h, read-out: MIC",> 64 µg/mL
same,MIC,"[4]; Enterococcus faecalis ATCC 29212, 37 °C, 16–18 h, read-out: MIC",1 µg/mL
same,MIC,"[5]; Enterococcus faecium 36711, 37 °C, 16–18 h, read-out: MIC",> 64 µg/mL
same,MIC,"[6]; Enterococcus gallinarum 5F52C, 37 °C, 16–18 h, read-out: MIC",8 µg/mL
same,MIC,"[7]; ML01, Micrococcus luteus ML01, 37 °C, 16–18 h, read-out: MIC",0.13 µg/mL
same,MIC,"[8]; Staphylococcus aureus (cfr) GDE4P037P, 37 °C, 16–18 h, read-out: MIC",16 µg/mL
same,MIC,"[9]; Staphylococcus aureus 16162, 37 °C, 16–18 h, read-out: MIC",16 µg/mL
same,MIC,"[10]; Staphylococcus aureus 16339, 37 °C, 16–18 h, read-out: MIC",64 µg/mL
same,MIC,"[11]; Staphylococcus aureus 1862, 37 °C, 16–18 h, read-out: MIC",4 µg/mL
same,MIC,"[12]; Staphylococcus aureus 3090, 37 °C, 16–18 h, read-out: MIC",16 µg/mL
same,MIC,"[13]; Staphylococcus aureus 669, 37 °C, 16–18 h, read-out: MIC",8 µg/mL
same,MIC,"[14]; Staphylococcus aureus 745324, 37 °C, 16–18 h, read-out: MIC",4 µg/mL
same,MIC,"[15]; Staphylococcus aureus 991, 37 °C, 16–18 h, read-out: MIC",4 µg/mL
same,MIC,"[16]; Staphylococcus aureus ATCC 29213, 37 °C, 16–18 h, read-out: MIC",1 µg/mL
same,MIC,"[17]; 37 °C, 16–18 h, read-out: MIC",32 µg/mL
"CN[C@H](CC(C)C)C(=O)N[C@H]1C(=O)N[C@@H](CC(N)=O)C(=O)N[C@H]2C(=O)N[C@H]3C(=O)N[C@H](C(=O)N[C@H](C(=O)O)c4cc(O)cc(O)c4-c4cc3ccc4O)[C@H](O)c3ccc(c(Cl)c3)Oc3cc2cc(c3O[C@@H]2O[C@H](CO)[C@@H](O)[C@H](O)[C@H]2O[C@H]2C[C@](C)(N)[C@H](O)[C@H](C)O2)Oc2ccc(cc2Cl)[C@H]1O [Vancomycin, reference compound]",MIC,"[1]; Staphylococcus simulans, AKA1",0.5 µg/mL
same,MIC,"[2]; Bacillus subtilis, BS01",0.13 µg/mL
same,MIC,"[3]; Enterococcus faecalis, 36950",0.5 µg/mL
same,MIC,[4]; Enterococcus faecalis,2 µg/mL
same,MIC,"[5]; Enterococcus faecium, 36711",> 64 µg/mL
same,MIC,"[6]; Enterococcus gallinarum, GALLINARUM",4 µg/mL
same,MIC,[7]; ML01,0.13 µg/mL
same,MIC,[8]; Staphylococcus aureus,1 µg/mL
same,MIC,"[9]; Staphylococcus aureus, 16162",0.5 µg/mL
same,MIC,"[10]; Staphylococcus aureus, 16339",1 µg/mL
same,MIC,"[11]; Staphylococcus aureus, 1862",1 µg/mL
same,MIC,"[12]; Staphylococcus aureus, 3090",0.5 µg/mL
same,MIC,"[13]; Staphylococcus aureus, 669",1 µg/mL
same,MIC,"[14]; Staphylococcus aureus, 745324",1 µg/mL
same,MIC,"[15]; Staphylococcus aureus, 991",0.5 µg/mL
same,MIC,[16]; Staphylococcus aureus,1 µg/mL
same,MIC,[17],0.5 µg/mL
"N.N.[Cl][Pt][Cl] [Cisplatin, reference compound]",IC50,[18],7.62 µM
same,IC50,[19],13.5 µM
same,IC50,[20],4.83 µM
same,IC50,[21],1820 nM
same,IC50,[22],11 µM
same,IC50,[23],7.54 µM
same,IC50,[24],15.7 µM
same,IC50,[25],8.35 µM
same,IC50,[26],4.56 µM
same,IC50,[27],3.17 µM
same,IC50,[28],12.1 µM
same,IC50,[29],7.7 µM
same,IC50,[30],6.43 µM
